As a reminder, the IC50 is the concentration that gives 50% inhibition. What is called Km is the concentration of substrate that gives half-maximal velocity.

Results on 24 molecules are retold here after paper PMC5784158, “New 2-Aryl-9-methyl-β-carbolinium salts as Potential Acetylcholinesterase Inhibitor agents: Synthesis, Bioactivity and Structure–Activity Relationship” (Scientific Reports, 2018).

Where two headings read alike, the source gives them in different places. Marks after values point to notes of the source that are not given here.

In assay [1] the target is T1, BuChE (Equus caballus, UniProt P81908).
T1 construct: BuChE (E.C. 3.1.1.8) (BR, 20 u/mg) from horse serum; purchased Shanghai Yuanye biological technology Co. Ltd (Shanghai, China); host or cells: horse serum (tissue-derived)
Kind of assay: BuChE inhibition, Ellman's method. The assay is classed as biochemical, horse. The conditions noted are these: read-out: IC50 ± S.D BuChE. The text has this:
There is increasing recognition that BuChE may play an important role in cholinergic transmission[15],[16]. While the level of AChE decreases dramatically in the advanced stage of AD, BuChE increases in brain regions involved in cognitive functions[17],[18]. At this point, BuChE is able to compensate for AChE loss by hydrolyzing ACh. These observations lead one to believe that inhibition of both AChE and BuChE may contribute to improvement of current symptomatic treatments of AD. Therefore, the compounds in Table 2 were also evaluated for BuChE inhibition activity by means of Ellman’s method. […] AChE (E.C. 3.1.1.7) (BR, 200 u/mg) from fly’s head and BuChE (E.C. 3.1.1.8) (BR, 20 u/mg) from horse serum were purchased from Shanghai Yuanye biological technology Co. Ltd (Shanghai, China).
(§1) The inhibitory activities of the compounds against AChE were evaluated according to Ellman’s coupled enzyme assay[47] with the following modifications. 90 μL potassium phosphate buffer (PBS, 0.1 M, pH 7.4), 10 μL the solution of 2 units/mL AChE in 0.1 M PBS (pH 7.4) and 10 μL the solution of 200 μM test compounds in the mixed solution of methanol-PBS (pH 7.4) (1:9, V/V) were added to each well of a 96-well plate. The methanol-PBS solution was used as a blank control. After incubation at room temperature for 10 min, 60 μL the solution of 10 mM DTNB in PBS was added into each the well. The plate was placed on crushed ices and cooled for 20 min. To each the well was added 30 μL the solution of 7.5 mM ATCh in PBS (pH 7.4). […] Each test was performed in triplicate. Inhibition rates of the enzyme were calculated relative to a control sample. The inhibitory activities against BuChE were measured as described above for AChE, using 0.7 unit/mL BuChE and 4 mM BuTCh instead of AChE and ATCh as the enzyme and substrate, respectively.
(§2) The probit value of the average inhibition rate for each test concentration and the corresponding lg[concentration] were used to establish enzyme inhibition regression equation by the linear least-square fitting method. IC50 values were calculated from the equations.
On the technique in general: In Ellman's method for cholinesterases, released thiocholine reacts with DTNB.

Assay [2] addresses T2, AChE (Musca domestica, UniProt Q7YWJ9). Kind of assay: biochemical. It is filed as biochemical, fly. Conditions: for IC50: read-out: IC50 ± S.D AChE; for Inhibition rate (%): test concentration of the compound 10 μM. The protocol:
AChE (E.C. 3.1.1.7) (BR, 200 u/mg) from fly’s head and BuChE (E.C. 3.1.1.8) (BR, 20 u/mg) from horse serum were purchased from Shanghai Yuanye biological technology Co. Ltd (Shanghai, China).
as §1, §2

For assay [3], the system named is BuChE. Conditions: read-out: IC50 ± S.D BuChE; cited from earlier work.
For assay [4], the system named is AChE. The conditions noted are these: cited from earlier work.
Assay [5] deals with T2, AChE. Kind of assay: Kinetic analysis of AChE inhibition (substrate ATCh). It is filed as biochemical, fly. The conditions noted are these: substrate. The text has this:
(A and B) The reciprocals of the initial reaction rates and substrate concentrations are plotted. (C and D) The slope values of the lines from graph A or C are plotted versus the inhibitor concentration, affording an equation of linear regression.

T1 sequence (P81908 whole entry): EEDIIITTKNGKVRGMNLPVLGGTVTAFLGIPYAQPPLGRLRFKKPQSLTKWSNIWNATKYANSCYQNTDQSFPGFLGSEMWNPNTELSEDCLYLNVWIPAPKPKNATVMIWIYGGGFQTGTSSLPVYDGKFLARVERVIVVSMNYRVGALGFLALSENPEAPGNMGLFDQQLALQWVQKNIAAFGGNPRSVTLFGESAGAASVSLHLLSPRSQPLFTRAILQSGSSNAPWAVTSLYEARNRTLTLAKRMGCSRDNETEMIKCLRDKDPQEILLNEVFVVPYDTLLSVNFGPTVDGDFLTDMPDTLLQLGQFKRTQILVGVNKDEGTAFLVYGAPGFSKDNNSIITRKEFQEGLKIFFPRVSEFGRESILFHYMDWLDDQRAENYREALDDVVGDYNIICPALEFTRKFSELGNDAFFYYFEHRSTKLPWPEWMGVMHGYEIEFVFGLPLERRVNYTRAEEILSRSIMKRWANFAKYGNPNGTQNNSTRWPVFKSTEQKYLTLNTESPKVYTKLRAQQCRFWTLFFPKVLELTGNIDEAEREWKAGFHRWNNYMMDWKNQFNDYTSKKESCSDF
T2 sequence (Q7YWJ9 81-659): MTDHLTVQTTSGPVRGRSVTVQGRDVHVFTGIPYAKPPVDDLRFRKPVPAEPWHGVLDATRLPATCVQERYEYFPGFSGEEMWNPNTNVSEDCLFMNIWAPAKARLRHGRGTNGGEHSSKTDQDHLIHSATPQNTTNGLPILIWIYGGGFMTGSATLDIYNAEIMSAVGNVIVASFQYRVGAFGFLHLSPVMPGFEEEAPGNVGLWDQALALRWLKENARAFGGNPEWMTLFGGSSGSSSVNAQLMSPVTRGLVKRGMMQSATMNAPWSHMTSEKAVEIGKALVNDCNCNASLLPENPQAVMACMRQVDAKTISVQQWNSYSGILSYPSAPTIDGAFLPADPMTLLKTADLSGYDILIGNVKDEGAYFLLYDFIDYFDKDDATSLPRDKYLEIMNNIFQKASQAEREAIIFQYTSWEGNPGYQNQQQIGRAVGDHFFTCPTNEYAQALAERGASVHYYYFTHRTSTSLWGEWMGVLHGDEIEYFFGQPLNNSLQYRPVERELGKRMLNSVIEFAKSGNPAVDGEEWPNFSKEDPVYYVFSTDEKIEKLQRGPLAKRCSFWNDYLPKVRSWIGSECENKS

On to `Cn1c2ccccc2c2cc[n+](-c3ccccc3F)cc21.[Br-]` [Compound B2, 9-Methyl-2-(2-fluorophenyl)-β-carboline bromide], for which, on BuChE [1], the IC50 worked out at 23 ± 0.53 µM. On AChE [2], the “SI: selectivity index, ratio IC50 (BuChE)/IC50 (AChE)” value (from here on “SI: selectivity index, ratio IC50”) is 3.49; the IC50 is 6.65 ± 1.07 µM; the “Inhibition rate (%)” value was determined as 59.8 ± 3.2 n %.

For `Cn1c2ccccc2c2cc[n+](-c3cccc(F)c3)cc21.[Br-]` [Compound B3, 9-Methyl-2-(3-fluorophenyl)-β-carboline bromide], the IC50 at BuChE [1] worked out at 72.4 ± 4.25 µM. Moreover, on AChE [2], the “SI: selectivity index, ratio IC50” value is 15.3; the IC50 was found to be 4.73 ± 0.33 µM; the “Inhibition rate (%)” value turned out to be 70.5 ± 2.2 l %.

On to `Cn1c2ccccc2c2cc[n+](-c3ccc(F)cc3)cc21.[Br-]` [Compound B4, 9-Methyl-2-(4-fluorophenyl)-β-carboline bromide], for which the IC50 at BuChE [1] stood at 51.6 ± 2.43 µM. At AChE [2], the “SI: selectivity index, ratio IC50” value amounted to 35.3; the half-maximal inhibitory concentration (IC50) amounted to 1.46 ± 0.12 µM; the “Inhibition rate (%)” value is 84.3 ± 1.5 hi %.

Regarding `Cn1c2ccccc2c2cc[n+](-c3cccc(Cl)c3)cc21.[Br-]` [Compound B6, 9-Methyl-2-(3-chlorophenyl)-β-carboline bromide], the IC50 on BuChE [1] is 33.1 ± 1.07 µM. Besides, on AChE [2], the “SI: selectivity index, ratio IC50” value is given as 3.40; the IC50 amounted to 9.65 ± 0.78 µM; the “Inhibition rate (%)” value is given as 56.4 ± 2.5 no %.

As to `Cn1c2ccccc2c2cc[n+](-c3ccc(Cl)cc3)cc21.[Br-]` [Compound B7, 9-Methyl-2-(4-chlorophenyl)-β-carboline bromide], the IC50 at BuChE [1] amounted to 60 ± 1.52 µM. In addition, on AChE [2], the “SI: selectivity index, ratio IC50” value was 107.1; the IC50 stood at 0.56 ± 0.07 µM; the “Inhibition rate (%)” value was found to be 91.2 ± 1.5 cde %.

Consider `Cn1c2ccccc2c2cc[n+](-c3ccc(Br)cc3)cc21.[Br-]` [Compound B10, 9-Methyl-2-(4-bromophenyl)-β-carboline bromide], for which, at BuChE [1], the IC50 came out at 55.4 ± 1.73 µM. On AChE [2], the “SI: selectivity index, ratio IC50” value stood at 128.8; the IC50 was found to be 0.43 ± 0.04 µM; the “Inhibition rate (%)” value is reported as 95.4 ± 0.8 ab %.

Turning to `Cn1c2ccccc2c2cc[n+](-c3cccc(I)c3)cc21.[Br-]` [Compound B12, 9-Methyl-2-(3-iodohenyl)-β-carboline bromide], the IC50 on BuChE [1] was 21.1 ± 0.46 µM. In addition, on AChE [2], the “SI: selectivity index, ratio IC50” value amounted to 1.90; the IC50 amounted to 11.1 ± 1.34 µM; the “Inhibition rate (%)” value came out at 56.4 ± 5.9 no %.

As for `Cn1c2ccccc2c2cc[n+](-c3ccc(I)cc3)cc21.[Br-]` [Compound B13, 9-Methyl-2-(4-iodohenyl)-β-carboline bromide], the IC50 on BuChE [1] amounted to 40.4 ± 1.83 µM. Moreover, on AChE [2], the “SI: selectivity index, ratio IC50” value was determined as 168.3 and the “Inhibition rate (%)” value is on record as 93.8 ± 0.4 abcd %.

With `Cn1c2ccccc2c2cc[n+](-c3cccc(O)c3)cc21.[Br-]` [Compound B15, 9-Methyl-2-(3-hydroxyhenyl)-β-carboline bromide], the IC50 at BuChE [1] came to 29.6 ± 2.48 µM. At AChE [2], the “SI: selectivity index, ratio IC50” value is on record as 7.60; the IC50 was 3.92 ± 0.3 µM; the “Inhibition rate (%)” value was determined as 72.1 ± 1.8 l %.

Consider `Cn1c2ccccc2c2cc[n+](-c3ccc(O)cc3)cc21.[Br-]` [Compound B16, 9-Methyl-2-(4-hydroxyhenyl)-β-carboline bromide], for which the IC50 on BuChE [1] was found to be 67.9 ± 11.5 µM. Further, on AChE [2], the “SI: selectivity index, ratio IC50” value amounted to 45.3; the IC50 was 1.5 ± 0.19 µM; the “Inhibition rate (%)” value worked out at 82.1 ± 2.5 ij %.

Regarding `COc1cccc(-[n+]2ccc3c4ccccc4n(C)c3c2)c1.[Br-]` [Compound B18, 9-Methyl-2-(3-methoxylphenyl)-β-carboline bromide], at BuChE [1], the IC50 came out at 62.2 ± 3.62 µM. Besides, at AChE [2], the “SI: selectivity index, ratio IC50” value is 6.42; the IC50 was 9.69 ± 0.8 µM; the “Inhibition rate (%)” value is 53.5 ± 0.4 op %.

On to `COc1ccc(-[n+]2ccc3c4ccccc4n(C)c3c2)cc1.[Br-]` [Compound B19, 9-Methyl-2-(4-methoxylphenyl)-β-carboline bromide], for which, on BuChE [1], the IC50 stood at 34 ± 2 µM. For the same molecule, on AChE [2], the “SI: selectivity index, ratio IC50” value was determined as 72.3; the IC50 came out at 0.47 ± 0.04 µM; the “Inhibition rate (%)” value came out at 90.7 ± 0.8 def %.

Regarding `Cc1ccccc1-[n+]1ccc2c3ccccc3n(C)c2c1.[Br-]` [Compound B20, 9-Methyl-2-(2-methylphenyl)-β-carboline bromide], the IC50 at BuChE [1] turned out to be 154 ± 9.1 µM. On AChE [2], the “SI: selectivity index, ratio IC50” value stood at 15.9; the IC50 was 9.71 ± 0.55 µM; the “Inhibition rate (%)” value came to 59.6 ± 3.2 n %.

Turning to `Cc1cccc(-[n+]2ccc3c4ccccc4n(C)c3c2)c1.[Br-]` [Compound B21, 9-Methyl-2-(3-methylphenyl)-β-carboline bromide], the IC50 at BuChE [1] is 68.6 ± 8.06 µM. In addition, at AChE [2], the “SI: selectivity index, ratio IC50” value is 13.6; the concentration for half-maximal inhibition (IC50) turned out to be 5.05 ± 0.26 µM; the “Inhibition rate (%)” value worked out at 72.4 ± 3.9 l %.

Turning to `Cn1c2ccccc2c2cc[n+](-c3ccccc3C#N)cc21.[Br-]` [Compound B23, 9-Methyl-2-(2-cyanophenyl)-β-carboline bromide], the IC50 at BuChE [1] came out at 196 ± 13.4 µM. For the same molecule, on AChE [2], the “SI: selectivity index, ratio IC50” value was 44.4; the IC50 was determined as 4.41 ± 0.29 µM; the “Inhibition rate (%)” value was 68.7 ± 0.7 lm %.

With `Cn1c2ccccc2c2cc[n+](-c3cccc(C#N)c3)cc21.[Br-]` [Compound B24, 9-Methyl-2-(3-cyanophenyl)-β-carboline bromide], at BuChE [1], the IC50 was 212 ± 17.4 µM. Further, at AChE [2], the “SI: selectivity index, ratio IC50” value was 20.6; the IC50 is 10.3 ± 0.6 µM; the “Inhibition rate (%)” value was 50.7 ± 2.2 pq %.

`Cn1c2ccccc2c2cc[n+](-c3ccc(C(F)(F)F)cc3)cc21.[Br-]` [Compound B27, 9-Methyl-2-(4-trifluoromethylphenyl)-β-carboline bromide]: on BuChE [1], the IC50 is 77.9 ± 4.97 µM. For the same molecule, on AChE [2], the “SI: selectivity index, ratio IC50” value is recorded as 111.3; the IC50 worked out at 0.7 ± 0.11 µM; the “Inhibition rate (%)” value is 91.4 ± 0.3 bcde %.

Consider `Cn1c2ccccc2c2cc[n+](-c3ccc(Cl)cc3Cl)cc21.[Br-]` [Compound B30, 9-Methyl-2-(2,4-dichlorophenyl)-β-carboline bromide], for which the IC50 at BuChE [1] amounted to 133 ± 26.3 µM. Further, at AChE [2], the “SI: selectivity index, ratio IC50” value stood at 241.1; the IC50 came to 0.55 ± 0.07 µM; the “Inhibition rate (%)” value came out at 90.6 ± 1.0 def %.

As to `Cn1c2ccccc2c2cc[n+](-c3ccc(Br)cc3F)cc21.[Br-]` [Compound B32, 9-Methyl-2-(2-fluoro-4-bromophenyl)-β-carboline bromide], the IC50 at BuChE [1] is 116 ± 18.2 µM. On AChE [2], the “SI: selectivity index, ratio IC50” value is 385.0 and the “Inhibition rate (%)” value was 92.8 ± 1.0 abc %.

In the case of `COc1cc2c(cc1OC)C(=O)C(CC1CCN(Cc3ccccc3)CC1)C2` (stereo not drawn) [Donepezil, donepezil], the IC50 in the assay with BuChE [3] is […].

Turning to `CCN(C)C(=O)Oc1cccc([C@H](C)N(C)C)c1` [Rivastigmine, rivastigmine], in the assay with AChE [4], the “SI: selectivity index, IC50 (BuChE)/IC50 (AChE)” value is […]. For the same molecule, the IC50 is […] with AChE [4] (read-out: IC50 ± S.D AChE) and […] in the assay with BuChE [3].

Take `Nc1c2c(nc3ccccc13)CCCC2` [Tacrine, tacrine]: the IC50 in the assay on BuChE [3] is […].

For `CC(=O)SCC[N+](C)(C)C` [acetylthiocholine iodide, Acetylthiocholine iodide, reference compound], the Km at AChE [5] was 163 µM.

As to `Nc1c2c(nc3cc(Cl)ccc13)C[C@H]1C=C(CCO)C[C@@H]2C1` [huprine W], in the assay with AChE [4] (inhibitor co-crystallised with AChE (PDB 4BDT), reference not given, read-out: IC50 AChE), the IC50 was 0.0011 µM.
